# Test results taken from patent US7273856B2, “Linear basic compounds having NK-2 antagonist activity and formulations thereof” (Menarini Ricerche S.P.A., priority 2001, dated 2007).
# Target: T1, human NK-2 receptor (Homo sapiens, UniProt P21452)
# T1 construct: expressed in transfected cells; host or cells: CHO (Chinese hamster ovary) cells, membranes
# T1 sequence (P21452 1-398): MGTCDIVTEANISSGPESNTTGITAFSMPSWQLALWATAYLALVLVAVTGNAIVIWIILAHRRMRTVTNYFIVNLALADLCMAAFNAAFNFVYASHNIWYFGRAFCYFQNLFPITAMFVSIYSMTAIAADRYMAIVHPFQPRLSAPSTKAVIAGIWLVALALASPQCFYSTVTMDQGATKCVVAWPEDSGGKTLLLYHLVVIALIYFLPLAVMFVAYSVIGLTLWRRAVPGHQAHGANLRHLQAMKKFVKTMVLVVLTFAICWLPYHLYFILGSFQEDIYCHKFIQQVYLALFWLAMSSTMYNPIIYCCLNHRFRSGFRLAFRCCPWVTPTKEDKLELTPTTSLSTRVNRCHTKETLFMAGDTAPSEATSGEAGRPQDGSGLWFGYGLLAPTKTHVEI
# Assay: binding test, affinity for the human NK-2 receptor, competition with [125I]NKA on transfected CHO cell membranes
# Details: CHO cell membranes transfected with NK-2 receptor of human ileum; [125I]NKA 100 pM; 30 min, 20° C.
# Method: The evaluation of the antagonist activity on NK-2 receptors has been assessed by binding and functional tests according to that already described in literature in relation to NK-2 antagonists.
# The test substances have been tested within a concentration range from 0.01 nM to 10 nM. At the end of the incubation time (30 min, 20° C.) the samples have been filtered and radioactivity has been determined using a gamma-counter.
row,Compound,Ki [nM]
1,"O=C(NC1(C(=O)N[C@H](Cc2ccccc2)C(=O)NCCCN2CCOCC2)CCCC1)c1cc2ccc(Br)cc2s1 [Example 108, 6-Bromo-benzo[b]thiophene-2-carboxylic acid {1-[1R-(3-morpholin-4-yl-propylcarbamoyl)-2-phenyl-ethylcarbamoyl]-cyclopentyl}-amide]",0.0794
2,"O=C(NC1(C(=O)N[C@H](Cc2ccccc2)C(=O)NCCCN2CCOCC2)CCCCC1)c1cc2ccc(Br)cc2s1 [Example 109, 6-Bromo-benzo[b]thiophene-2-carboxylic acid {1-[1R-(3-morpholin-4-yl-propylcarbamoyl)-2-phenyl-ethylcarbamoyl]-cyclohexyl}-amide]",0.1
3,"Cn1c(C(=O)NC2(C(=O)N[C@H](Cc3ccccc3)C(=O)NCCCN3CCOCC3)CCCC2)cc2ccc(Cl)cc21 [Example 111, 6-Chloro-1-methyl-1H-indole-2-carboxylic acid {1-[1R-(3-morpholin-4-yl-propylcarbamoyl)-2-phenyl-ethylcarbamoyl]-cyclopentyl}-amide]",0.2
4,"Cc1ccc2c(c1)cc(C(=O)NC1(C(=O)N[C@H](Cc3ccccc3)C(=O)NCCCN3CCOCC3)CCCC1)n2C [Example 114, 1,5-Dimethyl-1H-indole-2-carboxylic acid {1-[1R-(3-morpholinyl-propylcarbamoyl)-2-phenyl-ethylcarbamoyl]-cyclopentyl}-amide]",1.58
5,"Nc1ccc2cc(C(=O)NC3(C(=O)N[C@H](Cc4ccccc4)C(=O)NCCCN4CCOCC4)CCCC3)sc2c1 [Example 115, 6-Amino-benzo[b]thiophene-2-carboxylic acid {1-[1R-(3-morpholin-4-yl-propylcarbamoyl)-2-phenyl-ethylcarbamoyl]-cyclopentyl]-amide]",3.16
6,"O=C(NC1(C(=O)N[C@H](Cc2ccccc2)C(=O)NCCCN2CCOCC2)CCCC1)c1cc2ccc(Cl)c(Cl)c2s1 [Example 116, 6,7-Dichloro-benzo[b]thiophene-2-carboxylic acid {1-[1R-(3-morpholin-4-yl-propylcarbamoyl)-2-phenyl-ethylcarbamoyl]-cyclopentyl}-amide]",0.316
7,"O=C(NC1(C(=O)N[C@H](Cc2ccccc2)C(=O)NCC2CCN(CC3CCOCC3)CC2)CCCC1)c1cc2cc(F)ccc2o1 [Example 121, 5-Fluoro-benzofuran-2-carboxylic acid [1-(2-phenyl-1R-{[1-(tetrahydro-pyran-4-ylmethyl)-piperidin-4-ylmethyl]-carbamoyl}-ethylcarbamoyl)-cyclopentyl]-amide]",0.501
8,"O=C(NC1(C(=O)N[C@H](Cc2ccccc2)C(=O)NCC2CCN(CC3CCOCC3)CC2)CCCC1)c1cc2cc(Cl)ccc2o1 [Example 122, 5-Chloro-benzofuran-2-carboxylic acid [1-(2-phenyl-1R-{[1-(tetrahydro-pyran-4 ylmethyl)-piperidin-4-ylmethyl]-carbamoyl}-ethylcarbamoyl)cyclopentyl]-amide]",0.1
9,"CC(C)(C)c1cccc2cc(C(=O)NC3(C(=O)N[C@H](Cc4ccccc4)C(=O)NCC4CCN(CC5CCOCC5)CC4)CCCC3)oc12 [Example 124, 7-tert-Butyl-benzofuran-2-carboxylic acid [1-(2-phenyl-1R-{[1-(tetrahydro-pyran-4 ylmethyl)-piperidin-4-ylmethyl]-carbamoyl}-ethylcarbamoyl)-cyclopentyl]-amide]",0.1
10,"CC(C)(C)c1ccc2oc(C(=O)NC3(C(=O)N[C@H](Cc4ccccc4)C(=O)NCC4CCN(CC5CCOCC5)CC4)CCCC3)cc2c1 [Example 128, 5-tert-Butyl-benzofuran-2-carboxylic acid [1-(2-phenyl-1R-{[1-(tetrahydro-pyran-4-ylmethyl)-piperidin-4-ylmethyl]-carbamoyl}-ethylcarbamoyl)-cyclopentyl]-amide]",0.126
11,"O=C(NC1(C(=O)N[C@H](Cc2ccccc2)C(=O)NCC2CCN(CC3CCOCC3)CC2)CCCC1)c1cc2cccc(Br)c2s1 [Example 131, 7-Bromo-benzo[b]thiophene-2-carboxylic acid [1-(2-phenyl-1R-{[1-(tetrahydro-pyran-4-ylmethyl)-piperidin-4-ylmethyl]-carbamoyl}-ethylcarbamoyl)-cyclopentyl]-amide]",0.0398
12,"Cc1cccc2cc(C(=O)NC3(C(=O)N[C@H](Cc4ccccc4)C(=O)NCC4CCN(CC5CCOCC5)CC4)CCCC3)sc12 [Example 134, 7-Methyl-benzo[b]thiophene-2-carboxylic acid [1-(2-phenyl-1R-{[1-(tetrahydro-pyran-4-ylmethyl)-piperidin-4-ylmethyl]-carbamoyl}-ethylcarbamoyl)-cyclopentyl]-amide]",0.0631
13,"O=C(NC1(C(=O)N[C@H](Cc2ccccc2)C(=O)NCC2CCN(CC3CCOCC3)CC2)CCCC1)c1cc2cccc(C(F)(F)F)c2s1 [Example 136, 7-Trifluoromethyl-benzo[b]thiophene-2-carboxylic acid [1-(2-phenyl-1R-{[1-(tetrahydro-pyran-4-ylmethyl)piperidin-4-ylmethyl]-carbamoyl}-ethylcarbamoyl)-cyclopentyl]-amide]",0.0631
14,"O=C(NC1(C(=O)N[C@H](Cc2ccccc2)C(=O)NCC2CCN(CC3CCOCC3)CC2)CCCC1)c1cc2cccc(Cl)c2s1 [Example 137, 7-Chloro-benzo[b]thiophene-2-carboxylic acid [1-(2-phenyl-1R-{[1-(tetrahydro-pyran-4-ylmethyl)-piperidin-4-ylmethyl]-carbamoyl}-ethylcarbamoyl)-cyclopentyl]-amide]",0.0794

# Second part, the compound after the results:
row,Ki [nM],Compound
1,0.0501,"O=C(NC1(C(=O)N[C@H](Cc2ccccc2)C(=O)NCC2CCN(CC3CCOCC3)CC2)CCCC1)c1ccc2cc(I)ccc2c1 [Example 117, 6-Iodo-naphthalene-2-carboxylic acid (1-(2-phenyl-1R-{[1-(tetrahydro-pyran-4-ylmethyl)-piperidin-4-ylmethyl]-carbamoyl}-ethylcarbamoyl)-cyclopentyl]-amide]"
2,0.316,"COc1ccc2cc(C(=O)NC3(C(=O)N[C@H](Cc4ccccc4)C(=O)NCC4CCN(CC5CCOCC5)CC4)CCCC3)ccc2c1 [Example 118, 6-Methoxy-naphthalene-2-carboxylic acid [1-(2-phenyl-1R-{[1-(tetrahydro-pyran-4-ylmethyl)-piperidin-4-ylmethyl]-carbamoyl}-ethylcarbamoyl)-cyclopentyl]-amide]"
3,0.251,"O=C(NC1(C(=O)N[C@H](Cc2ccccc2)C(=O)NCC2CCN(CC3CCOCC3)CC2)CCCC1)c1cc2ccc(Br)cc2o1 [Example 119, 6-Bromo-benzofuran-2-carboxylic acid [1-(2-phenyl-1R-{[1-(tetrahydro-pyran-4-ylmethyl)-piperidin-4-ylmethyl]-carbamoyl}-ethylcarbamoyl)cyclopentyl]-amide]"
4,0.316,O=C(NC1(C(=O)N[C@H](Cc2ccccc2)C(=O)NCC2CCN(CC3CCOCC3)CC2)CCCC1)c1cc2ccc(Cl)cc2o1 [Example 120]
5,0.1,"O=C(NC1(C(=O)N[C@H](Cc2ccccc2)C(=O)NCC2CCN(CC3CCOCC3)CC2)CCCC1)c1cc2cc(Br)ccc2o1 [Example 123, 5-Bromo-benzofuran-2-carboxylic acid [1-(2-phenyl-1R-{[1-(tetrahydro-pyran-4-ylmethyl)-piperidin-4-ylmethyl]-carbamoyl}-ethylcarbamoyl)cyclopentyl]-amide]"
6,0.251,"Cc1ccc2cc(C(=O)NC3(C(=O)N[C@H](Cc4ccccc4)C(=O)NCC4CCN(CC5CCOCC5)CC4)CCCC3)oc2c1 [Example 125, 6-Methyl-benzofuran-2-carboxylic acid [1-(2-phenyl-1R-{[1-(tetrahydro-pyran-4-ylmethyl)-piperidin-4-ylmethyl]-carbamoyl}-ethylcarbamoyl)-cyclopentyl]-amide]"
7,0.158,"Cc1ccc2oc(C(=O)NC3(C(=O)N[C@H](Cc4ccccc4)C(=O)NCC4CCN(CC5CCOCC5)CC4)CCCC3)cc2c1 [Example 126, 5-Methyl-benzofuran-2-carboxylic acid [1-(2-phenyl-1R-([1-(tetrahydro-pyran-4-ylmethyl)-piperidin-4-ylmethyl]-carbamoyl}-ethylcarbamoyl)-cyclopentyl]-amide]"
8,0.0794,"O=C(NC1(C(=O)N[C@H](Cc2ccccc2)C(=O)NCC2CCN(CC3CCOCC3)CC2)CCCC1)c1cc2cc(I)ccc2o1 [Example 127, 5-Iodo-benzofuran-2-carboxylic acid [1-(2-phenyl-1R-{[1-(tetrahydro-pyran-4-ylmethyl)-piperidin-4-ylmethyl]-carbamoyl}-ethylcarbamoyl)-cyclopentyl]-amide]"
9,0.0501,"O=C(NC1(C(=O)N[C@H](Cc2ccccc2)C(=O)NCC2CCN(CC3CCOCC3)CC2)CCCC1)c1cc2ccc(I)cc2s1 [Example 129, 6-Iodo-benzo[b]thiophene-2-carboxylic acid [1-(2-phenyl-1R-{[1-(tetrahydro-pyran-4-ylmethyl)-piperidin-4-ylmethyl]-carbamoyl}-ethylcarbamoyl)-cyclopentyl]-amide]"
10,0.0316,"O=C(NC1(C(=O)N[C@H](Cc2ccccc2)C(=O)NCC2CCN(CC3CCOCC3)CC2)CCCC1)c1cc2cccc(I)c2s1 [Example 132, 7-Iodo-benzo[b]thiophene-2-carboxylic acid [1-(2-phenyl-1R-{[1-(tetrahydro-pyran 4-ylmethyl)-piperidin-4-ylmethyl]-carbamoyl}-ethylcarbamoyl)-cyclopentyl]-amide]"
